Experimental data: ChEMBL document CHEMBL4619711, “Medicinal Chemistry of Inhibiting RING-Type E3 Ubiquitin Ligases” (J Med Chem, 2020)

Columns and labels:
SJSA-1 = test: cells; conditions: Homo sapiens
[1] = Plasma clearance in mouse at iv dose; format: ADME, organism-based
[2] = Oral bioavailability in mouse; format: ADME, organism-based; conditions: in vivo
[3] = target: T1, E3 ubiquitin-protein ligase XIAP (Homo sapiens, UniProt P98170); test: Inhibition of XIAP-BIR3 domain (unknown origin)
T1 sequence (P98170 whole entry, the tested form may be a part): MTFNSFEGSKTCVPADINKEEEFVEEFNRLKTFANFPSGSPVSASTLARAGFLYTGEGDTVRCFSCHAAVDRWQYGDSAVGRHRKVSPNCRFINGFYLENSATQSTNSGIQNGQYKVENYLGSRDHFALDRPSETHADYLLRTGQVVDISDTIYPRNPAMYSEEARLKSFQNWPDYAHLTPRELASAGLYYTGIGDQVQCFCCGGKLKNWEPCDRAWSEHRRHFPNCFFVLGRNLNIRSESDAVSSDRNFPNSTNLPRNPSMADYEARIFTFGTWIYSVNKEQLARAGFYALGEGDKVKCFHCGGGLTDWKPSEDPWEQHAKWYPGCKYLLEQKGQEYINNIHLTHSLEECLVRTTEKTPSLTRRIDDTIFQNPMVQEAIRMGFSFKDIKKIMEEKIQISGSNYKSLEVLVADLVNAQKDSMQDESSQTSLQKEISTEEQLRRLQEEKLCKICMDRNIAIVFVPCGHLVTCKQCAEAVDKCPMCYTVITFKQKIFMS

[4] = target: T1, E3 ubiquitin-protein ligase XIAP; test: Inhibition of XIAP-BIR2 domain (unknown origin)
[5] = target: von Hippel-Lindau disease tumor suppressor (Homo sapiens, UniProt P40337); test: Inhibition of VHL (unknown origin) by fluorescence polarization assay
von Hippel-Lindau disease tumor suppressor, sequence (P40337 whole entry): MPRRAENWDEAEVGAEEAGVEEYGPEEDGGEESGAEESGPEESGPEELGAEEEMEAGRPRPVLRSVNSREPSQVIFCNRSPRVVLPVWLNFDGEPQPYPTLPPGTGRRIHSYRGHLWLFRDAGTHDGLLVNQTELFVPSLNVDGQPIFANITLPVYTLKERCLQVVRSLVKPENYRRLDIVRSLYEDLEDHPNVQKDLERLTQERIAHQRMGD

[6] = Stability in rat blood assessed as parent compound remaining after 4 hrs; format: ADME, tissue-based; conditions: read-out: Stability

| SMILES | clearance [1] [mL/min/kg] | IC50 [3] [nM] | IC50 [4] [nM] | remaining at 4 h [6] [%] | further results |
| --- | --- | --- | --- | --- | --- |
| CC(C)(C)C[C@@H]1N[C@@H](C(=O)NCCN2CCOCC2)[C@H](c2cccc(Cl)c2F)[C@@]12C(=O)Nc1cc(Cl)ccc12 | – | – | – | – | IC50 (SJSA-1): 500 nM |
| CN[C@@H](C)C(=O)N[C@@H]1C(=O)N(Cc2c(C)ccc3ccccc23)c2ccc(C#N)cc2N(C(C)=O)[C@H]1C | 4.3 | – | – | – | bioavailability [2]: 28% |
| CN[C@@H](C)C(=O)NC1C(=O)N(Cc2c(C#N)n(-c3ccccc3C#N)c3ccccc23)c2ccccc2CC12CCOCC2 (some centres undefined) | 41 | 3100 | 39 | – | – |
| Cc1cc(CC(=O)N2C[C@H](O)C[C@H]2C(=O)NCc2ccccc2Cl)on1 | – | – | – | – | IC50 [5]: 117000 nM |
| CN[C@@H](C)C(=O)N[C@H]1COc2ccccc2N(Cc2c(OC)ccc3cc(Br)ccc23)C1=O | 521 | – | – | 7 | – |
| Cc1ncsc1-c1ccc(CNC(=O)[C@@H]2C[C@@H](O)CN2C(=O)c2cccc(N)c2C)cc1 | – | – | – | – | IC50 [5]: 670 nM |
| CC(C)(C)C[C@@H]1N[C@@H](C(=O)N[C@H]2CC[C@H](O)CC2)[C@H](c2cccc(Cl)c2F)[C@@]12C(=O)Nc1cc(Cl)ccc12 | – | – | – | – | IC50 (SJSA-1): 92 nM |
| CN[C@@H](C)C(=O)N[C@H]1CCc2ccccc2N(Cc2c(OC)ccc3cc(Br)ccc23)C1=O | 155 | > 54000 | 194 | 40 | – |
| CN[C@@H](C)C(=O)NC1C(=O)N(Cc2c(OC)ccc3cc(Br)ccc23)c2ccccc2CC12CCOCC2 (some centres undefined) | 60 | 24000 | 65 | 88 | – |
